Data taken from patent publication US4460594A, “Bicyclo-hetero-alkylene-1-piperidines, pharmaceutical compositions thereof and methods of use thereof” (Beecham Group p.l.c., priority 1981, dated 1984).
Where a name gives a salt, the structure may show the parent alone. Each block holds one molecule with its values, some of them ahead of it.

Assays:
dopamine receptor [1] = target: T1, dopamine receptor (Rattus norvegicus, UniProt P61169); experiment: displacement of 3H-Spiperone, dopamine receptor labelling; type: binding
T1 construct: from tissue
T1 sequence (P61169 whole entry): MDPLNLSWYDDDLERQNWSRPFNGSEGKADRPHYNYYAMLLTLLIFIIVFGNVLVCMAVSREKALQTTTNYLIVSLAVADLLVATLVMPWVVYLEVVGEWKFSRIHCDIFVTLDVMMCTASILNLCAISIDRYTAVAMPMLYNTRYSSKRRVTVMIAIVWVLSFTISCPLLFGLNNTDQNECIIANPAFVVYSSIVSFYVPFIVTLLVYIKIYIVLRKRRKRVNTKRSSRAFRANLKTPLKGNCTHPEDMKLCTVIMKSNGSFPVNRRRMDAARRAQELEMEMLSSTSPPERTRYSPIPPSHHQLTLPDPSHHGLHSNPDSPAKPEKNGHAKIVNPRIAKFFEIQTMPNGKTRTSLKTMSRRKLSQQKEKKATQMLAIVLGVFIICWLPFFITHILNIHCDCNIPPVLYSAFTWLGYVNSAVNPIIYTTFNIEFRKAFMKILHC
Text: (§1) α-Adrenoceptor and dopamine receptors were labelled using methods similar to those previously reported [see S. Lazareno and S. R. Nahorski, Communication presented to Brit. Pharm. Soc., Bradford, 74 (1981), and P. Greengrass and R. Bremer, Eur. J. Pharmacol 55, 323 (1979)].

dopamine receptor [2] = target: T1, dopamine receptor; experiment: displacement of 3H-Domperidone, dopamine receptor labelling; type: binding
Text: as §1

α-Adrenoceptor [3] = experiment: displacement of 3H-Yohimbine, α-adrenoceptor labelling; type: binding
Text: as §1

α-Adrenoceptor [4] = experiment: displacement of 3H-Prazosin, α-adrenoceptor labelling; type: binding
Text: as §1

[5] = system: presynaptic dopaminergic autoreceptors; experiment: Inhibition of Spontaneous Climbing in the Mouse; type: in vivo; conditions: 10 minute period commencing 3 minutes after administration; for % Inhibition of Spontaneous Climbing Behaviour in Mice: at 0.2 mg/kg subcutaneous; for ID50, Inhibition of Spontaneous Climbing Behaviour in Mice: subcutaneous
Description: It is believed that this inhibitory effect is mediated by stimultion of presynaptic dopaminergic autoreceptors, i.e. receptors whose stimulation results in inhibition of dopamine synthesis and electrical activity of dopamine neurones. Spontaneous climbing behavior was assessed by the method of M. P. Martres et al., Brain Res. 136, 319 (1977).
This involves the monitoring of the frequency of climbing behaviour of mice in inverted food hoppers over a 10 minute period commencing 3 minutes after subcutaneous administration of compound.
A climb is defined as the mouse having all four feet off the ground. Experiments are carried out with a minimum of 5 groups of 10 mice, one group acting as control. […] The ID50 value is calculated using the Litchfield and Wilcoxon technique and is defined as the concentration of drug which would be expected to reduce spontaneous climbing of a group of mice by 50%.

[6] = 3H-Spiperone, read-out: INHIBITION CONSTANT Ki, 3H-Spiperone
[7] = 3H-Domperidone, read-out: INHIBITION CONSTANT Ki, 3H-Domperidone
[8] = read-out: INHIBITION CONSTANT Ki, 3H-Yohimbine
[9] = read-out: INHIBITION CONSTANT Ki, 3H-Prazosin

SMILES: NC1CCc2c(ccc(O)c2O)C1 (stereo not drawn) [A-5,6-DTN]
- Ki (dopamine receptor [1]; [6]): 520 nM
- Ki (dopamine receptor [2]; [7]): 240 nM
- Ki (α-Adrenoceptor [3]; [8]): 690 nM
- Ki (α-Adrenoceptor [4]; [9]): 16000 nM

SMILES: NC1CCc2cc(O)c(O)cc2C1 (stereo not drawn) [A-6,7-DTN]
- Ki (dopamine receptor [1]): 130 nM
- Ki (dopamine receptor [2]): 12 nM
- Ki (α-Adrenoceptor [3]; read-out: […] Ki, 3H-Yohimbine): 560 nM
- Ki (α-Adrenoceptor [4]; read-out: […] Ki, 3H-Prazosin): 10000 nM

SMILES: Br.Oc1cccc(C2CCCN(Cc3c(Br)oc4ccccc34)C2)c1 (stereo not drawn) [Compound 11, 3-[1-(2-bromo-3-benzofurylmethyl)-3-piperidyl]phenol hydrobromide]
- % Inhibition of Spontaneous Climbing Behaviour in Mice [5]: 24%

SMILES: Oc1cccc(C2CCCN(Cc3coc4ccccc34)C2)c1 (stereo not drawn) [Compound 12, 3-[1-(3-Benzofurylmethyl)-3-piperidyl]phenol hydrobromide hemihydrate]
- % Inhibition of Spontaneous Climbing Behaviour in Mice [5]: 23%

SMILES: Oc1cccc(C2CCCN(CCc3cc4ccccc4o3)C2)c1 (stereo not drawn) [Compound 13, 3-(1-[2-(2-Benzofuryl)ethyl]-3-piperidyl)phenol hydrobromide hemihydrate]
- ID50, Inhibition of Spontaneous Climbing Behaviour in Mice [5]: 0.29 mg/kg

SMILES: Br.Oc1cccc(C2CCCN(Cc3cc4ccccc4o3)C2)c1 (stereo not drawn) [Compound 14, 3-[1-(2-benzofurylmethyl)-3-piperidyl]phenol hydrobromide]
- ID50, Inhibition of Spontaneous Climbing Behaviour in Mice [5]: 1.7 mg/kg

- Ki (dopamine receptor [1]; [6]): 200 nM
- Ki (dopamine receptor [2]; [7]): 48 nM
- Ki (α-Adrenoceptor [3]; [8]): 13 nM
- Ki (α-Adrenoceptor [4]; [9]): 210 nM
SMILES: Oc1cccc(C2CCCN(CC3Cc4ccccc4O3)C2)c1 (stereo not drawn) [Compound 30, 3-(1-[(2,3-Dihydro-2-benzofuranyl)methyl]-3-piperidinylphenol) hydrobromide hydrate]
- ID50, Inhibition of Spontaneous Climbing Behaviour in Mice [5]: 0.09 mg/kg

SMILES: Oc1cccc(C2CCCN(CCc3c[nH]c4ccccc34)C2)c1 (stereo not drawn) [Compound 34, 3-(1-[2-(1H-3-Indolyl)ethyl]-3-piperidyl)phenol]
- % Inhibition of Spontaneous Climbing Behaviour in Mice [5]: 52%
